Structures are written as SMILES.

The target of one assay is T1, Syk (Homo sapiens, UniProt P43405).
T1 construct: purchased Carna Biosciences
As to the kind of experiment: Syk HTRF assay. Type of assay: biochemical. The following applies: IC50 activity level, read-out: Activity Level. An outline of the steps:
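Read-out is the 665 nm/615 nm time-resolved fluorescence ratio after EDTA stop and Eu-anti-phosphotyrosine plus streptavidin-DyLight 647 detection. Reaction ran 1 h at room temperature with start mix of 87.5 μM ATP and 80 nM substrate peptide in pH 7.6 HEPES/MgCl2 buffer.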
Background: In TR-FRET formats the signal depends on donor and acceptor labels being close together.
With `O[C@H]1CC[C@@H](Oc2cccc3nc(Nc4ccc(F)cc4)nn23)CC1` [Example 417, cis-4-(2-(4-fluorophenylamino)-[1,2,4]triazolo[1,5-a]pyridin-5-yloxy)cyclohexanol], the IC50 is 1000 to 10000 nM.

As to `c1ccc(Nc2nc3cccc(-c4ccncc4)n3n2)cc1` [Example 528, N-phenyl-5-(pyridin-4-yl)-[1,2,4]triazolo[1,5-a]pyridin-2-amine], the IC50 lay within 250 to 500 nM.

For the compound `Cn1ncc2ccc(Nc3nc4cccc(NC5CCCNC5)n4n3)cc21` (stereo in doubt) [Example 463, (R)-N^2-(1-methyl-1H-indazol-6-yl)-N^5-(piperidin-3-yl)-[1,2,4]triazolo[1,5-a]pyridin-2,5-diamine], the IC50 was in the range of 500 to 1000 nM.

Consider `OC(Cc1cccc2nc(Nc3ccc(F)cc3)nn12)c1ccccc1` (centres unmarked) [Example 431, 2-(2-(4-fluorophenylamino)-[1,2,4]triazolo[1,5-a]pyridin-5-yl)-1-phenylethanol], for which the IC50 lay within 250 to 500 nM.

On to `Nc1nccc2ccc(-c3cccc4nc(Nc5ccccc5)nn34)cc12` [Example 489, 7-(2-(phenylamino)-[1,2,4]triazolo[1,5-a]pyridin-5-yl)isoquinolin-1-amine], for which the IC50 was 500 to 1000 nM.

For the compound `Cc1nnc2cc(Nc3nc4cccc(N[C@H]5CC[C@@H](O)CC5)n4n3)ccn12` [Example 568, cis-4-(2-(3-methyl-[1,2,4]triazolo[4,3-a]pyridin-7-ylamino)-[1,2,4]triazolo[1,5-a]pyridin-5-ylamino)cyclohexanol], the IC50 is 0.005 to 250 nM.

The same assay, now with this note: activity levels A-D, read-out: Activity Level (IC50 in the Syk HTRF assay).
For `OC1CCN(c2ccc(Nc3nc4cccc(N[C@H]5CC[C@@H](O)CC5)n4n3)cn2)CC1` [Example 294, cis-1-(5-(5-(4-hydroxycyclohexylamino)-[1,2,4]triazolo[1,5-a]pyridin-2-ylamino)pyridin-2-yl)piperidin-4-ol], the IC50 was in the range of 0.005 to 250 nM.

Regarding `OC[C@@H]1CCCN1Cc1cccc2nc(Nc3ccc(C(F)(F)F)cc3)nn12` [Example 271, (S)-(1-((2-(4-(trifluoromethyl)phenylamino)-[1,2,4]triazolo[1,5-a]pyridin-5-yl)methyl)pyrrolidin-2-yl)methanol], the IC50 was 1000 to 10000 nM.

For `OCC1CCCN1Cc1cccc2nc(Nc3ccc(C(F)(F)F)cc3)nn12` (stereo in doubt) [Example 272, (R)-(1-((2-(4-(trifluoromethyl)phenylamino)-[1,2,4]triazolo[1,5-a]pyridin-5-yl)methyl)pyrrolidin-2-yl)methanol], the IC50 is 1000 to 10000 nM.

Staying with this assay, now noted: read-out: Activity Level (Syk HTRF assay IC50).
Take `CNC(=O)c1ccc(Nc2nc3cccc(-c4cccc(Cl)c4)n3n2)cc1` [compound 13, 4-(5-(3-chlorophenyl)-[1,2,4]triazolo[1,5-a]pyridin-2-ylamino)-N-methylbenzamide]: the IC50 lay within 0.005 to 250 nM.

As to `c1cc(CC2CCOCC2)n2nc(Nc3cnc4cn[nH]c4c3)nc2c1` [compound 106, N-(5-((tetrahydro-2H-pyran-4-yl)methyl)-[1,2,4]triazolo[1,5-a]pyridin-2-yl)-1H-pyrazolo[4,3-b]pyridin-6-amine], the IC50 was 500 to 1000 nM.

On to `Cc1n[nH]c2cc(Nc3nc4cccc(O[C@@H]5COC[C@@H]5O)n4n3)ccc12` (racemic) [Example 165, (±)-cis-4-(2-(3-methyl-1H-indazol-6-ylamino)-[1,2,4]triazolo[1,5-a]pyridin-5-yloxy)tetrahydrofuran-3-ol], for which the IC50 was in the range of 250 to 500 nM.

With `Cc1cc(Nc2nc3cccc(NC4CCOCC4)n3n2)cc2c1cnn2C` [Example 148, N^2-(1,4-dimethyl-1H-indazol-6-yl)-N^5-(tetrahydro-2H-pyran-4-yl)-[1,2,4]triazolo[1,5-a]pyridin-2,5-diamine], the IC50 is 0.005 to 250 nM.

Turning to `c1ccc(-c2cccc3nc(Nc4ccc5oncc5c4)nn23)cc1` [compound 43, N-(5-phenyl-[1,2,4]triazolo[1,5-a]pyridin-2-yl)benzo[d]isoxazol-5-amine], the IC50 fell in the range of 0.005 to 250 nM.

The values above are taken from patent US8299056B2 (Signal Pharmaceuticals, LLC, priority 2008, dated 2012).
